≈ marks a conversion by molar mass, not a printed value. Read-outs that look alike come from different tables or passages of the source.
Columns and labels:
[1] = system: chloroquine-resistant K1 strain of P. falciparum; assay: In vitro antimalarial semiautomated microdilution assay ([3H]-hypoxanthine incorporation), K1 strain; assay type: cell-based, Plasmodium falciparum; details: Plasmodium falciparum
Outline: (§1)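 Asynchronous stock-culture parasites (intraerythrocytic forms), serial compound dilutions; readout [3H]-hypoxanthine uptake; IC50 via Logit regression.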

[2] = system: chloroquine-sensitive NF54 strain of P. falciparum; assay: In vitro antimalarial semiautomated microdilution assay ([3H]-hypoxanthine incorporation), NF54 strain; assay type: cell-based, Plasmodium falciparum; details: Plasmodium falciparum
Outline: as §1

[3] = system: ANKA strain of P. berghei; assay: Single dose STI in vivo screen in infected mice; parameters: species or system Plasmodium berghei; details: for Survival (days) 10 mg/kg po: single 10 mg/kg po in 3% ethanol and 7% Tween 80; for Survival (days) 10 mg/kg po / Survival (days) 10 mg/kg SSV po / Survival (days) 10 mg/kg sc: untreated 6-7 days; for Activity (%) 10 mg/kg po: single 10 mg/kg po in 3% ethanol and 7% Tween 80 on day 1 post-infection; for Activity (%) 10 mg/kg po / Activity (%) 10 mg/kg SSV po / Activity (%) 10 mg/kg sc / Activity (%) 3 mg/kg SSV po: percent reduction in parasitemia on day 3; for Survival (days) 10 mg/kg SSV po: single 10 mg/kg po in SSV; for Activity (%) 10 mg/kg SSV po: single 10 mg/kg po in standard suspending vehicle (SSV) on day 1 post-infection; for Survival (days) 10 mg/kg sc: single 10 mg/kg sc in 3% ethanol and 7% Tween 80; for Activity (%) 10 mg/kg sc: single 10 mg/kg sc in 3% ethanol and 7% Tween 80 on day 1 post-infection; for Survival (days) 3 mg/kg SSV po / Activity (%) 3 mg/kg SSV po: single 3 mg/kg po in SSV
[4] = chloroquine-resistant K1 strain, 72 h incubation, read-out: IC50 (ng/ml) K1
[5] = chloroquine-sensitive NF54 strain, 72 h incubation, read-out: IC50 (ng/ml) NF54
[6] = K1, 72 h, read-out: IC50 (ng/ml) K1, chloroquine-resistant K1 strain, 72 h incubation
[7] = NF54, 72 h, read-out: IC50 (ng/ml) NF54, chloroquine-sensitive NF54 strain, 72 h incubation

Row | Compound | IC50 [1, 4] | IC50 [2, 5] | Survival (days) 10 mg/kg po [3] | Activity (%) 10 mg/kg po [3] | Survival (days) 10 mg/kg SSV po [3] | Activity (%) 10 mg/kg SSV po [3] | Survival (days) 10 mg/kg sc [3] | Activity (%) 10 mg/kg sc [3] | IC50 [1, 6] | IC50 [2, 7] | Survival (days) 3 mg/kg SSV po [3] | Activity (%) 3 mg/kg SSV po [3]
1 | c1cnn(C[C@H]2CC[C@]3(CC2)OOC2(O3)C3CC4CC(C3)CC2C4)c1 (stereo partly drawn) [OZ211] | 1 ng/mL (≈ 2.9 nM) | 1.2 ng/mL (≈ 3.48 nM) | 8.0 days | 82% | 7.3 days | 78% | 8.7 days | 99.90% |  |  |  | 
2 | CC(=O)Nc1ccc(S(=O)(=O)N2CCC3(CC2)OOC2(O3)C3CC4CC(C3)CC2C4)cc1 (stereo not drawn) [OZ104, Adamantane-2-spiro-3′-8′-[[4-(acetylamino)phenyl]sulfonyl]-1′,2′,4′-trioxa-8′-azaspiro[4.5]decane] |  |  | 6.3 days | 56% | 5.7 days | 0% | 12.0 days | 99.98% | 1.4 ng/mL (≈ 3.03 nM) | 0.5 ng/mL (≈ 1.08 nM) |  | 
3 | O=C(O)CCC[C@H]1CC[C@]2(CC1)OOC1(O2)C2CC3CC(C2)CC1C3 (stereo partly drawn) [OZ261] | 39 ng/mL (≈ 111 nM) | 18 ng/mL (≈ 51.4 nM) | 7.0 days | 61% | 7.0 days | 47% | 8.0 days | 92% |  |  |  | 
4 | C1C2CC3CC1CC(C2)C31OO[C@]2(CC[C@@H](CNC3CC3)CC2)O1 (stereo partly drawn) [OZ253] | 0.56 ng/mL (≈ 1.68 nM) | 0.45 ng/mL (≈ 1.35 nM) | 7.0 days | 75% | 6.7 days | 59% | 9.3 days | 99.82% |  |  |  | 
5 | CCOC(=O)N1C2CCC1CC1(C2)OOC2(O1)C1CC3CC(C1)CC2C3 (stereo not drawn) [OZ110, Adamantane-2-spiro-3′-1′,2′,4′-trioxolane-5′-spiro-3″-8″-ethoxycarbonyl-8″-azabicyclo[3.2.1]octane] |  |  | 6.7 days | 50% | 5.3 days | 0% | 7.7 days | 97.97% | 5.3 ng/mL (≈ 14.6 nM) | 2.1 ng/mL (≈ 5.78 nM) |  | 
6 | c1ccc(CNC[C@H]2CC[C@]3(CC2)OO[C@]2(O3)C3CC4CC(C3)CC2C4)nc1 [OZ292] | 0.19 ng/mL (≈ 0.494 nM) | 0.26 ng/mL (≈ 0.676 nM) |  |  | 7.0 days | 74% |  |  |  |  | 6.6 days | 46%
7 | O=C1CNC(=O)N1C[C@H]1CC[C@]2(CC1)OOC1(O2)C2CC3CC(C2)CC1C3 (stereo partly drawn) [OZ206] |  |  | 8.0 days | 93% | 8.7 days | 92% | 9.7 days | 91% | 1 ng/mL (≈ 2.66 nM) | 2.7 ng/mL (≈ 7.17 nM) |  | 
8 | O=S(=O)(Cc1ccccc1)N1CCC2(CC1)OOC1(O2)C2CC3CC(C2)CC1C3 (stereo not drawn) [OZ131, Adamantane-2-spiro-3′-8′-phenylmethanesulfonyl-1′,2′,4′-trioxa-8′-azaspiro[4.5]decane] |  |  | 5.7 days | 21% | 6.0 days | 41% | 8.0 days | 90% | 1.7 ng/mL (≈ 4.05 nM) | 4.1 ng/mL (≈ 9.77 nM) |  | 
9 | O=C(O)c1cncn1C[C@H]1CC[C@]2(CC1)OOC1(O2)C2CC3CC(C2)CC1C3 (stereo partly drawn) [OZ231, cis-Adamantane-2-spiro-3′-8′-(5′-carboxy-1′H-imidazol-1′-ylmethyl)-1′,2′,4′-30 trioxaspiro[4.5]decane] |  |  | 5.3 days | 0/0/0% | 5.7 days | 0/0/0% | 6.0 days | 0/0/0% | > 10 ng/mL | > 10 ng/mL |  | 
10 | COC(=O)c1ccc(C[C@H]2CC[C@]3(CC2)OOC2(O3)C3CC4CC(C3)CC2C4)cc1 (stereo partly drawn) [OZ204] |  |  | 6.0 days | 0/0/0% | 6.3 days | 0/0/0% | 6.0 days | 0/0/0% | > 10 ng/mL | > 10 ng/mL |  | 
11 | O=C1c2ccccc2C(=O)N1[C@H]1CC[C@]2(CC1)OOC1(O2)C2CC3CC(C2)CC1C3 (stereo partly drawn) [OZ136] |  |  | 6.0/6.0/6.0 days | 0/0/0% | 6.0/6.0/6.0 days | 0/0/0% | 6.0/6.0/6.0 days | 0/0/0% | 23 ng/mL (≈ 56.2 nM) | 21 ng/mL (≈ 51.3 nM) |  | 
12 | NC(=O)C(=O)NC[C@H]1CC[C@]2(CC1)OOC1(O2)C2CC3CC(C2)CC1C3 (stereo partly drawn) [OZ268, N-(cis-Adamantane-2-spiro-3′-1′,2′,4′-trioxaspiro[4.5]decane-8′-methyl)oxamide] | 0.44 ng/mL (≈ 1.21 nM) | 0.71 ng/mL (≈ 1.95 nM) | 9.3 days | 99.86% | 13.3 days | 99.47% | 9.7 days | 99.92% |  |  |  | 
13 | O=C(NC[C@H]1CC[C@]2(CC1)OOC1(O2)C2CC3CC(C2)CC1C3)c1cccc[n+]1[O-] (stereo partly drawn) [OZ270] | 0.85 ng/mL (≈ 2.05 nM) | 1.3 ng/mL (≈ 3.14 nM) | 13.7 days | 99.17% | 12.3 days | 99.47% | 11.3 days | 99.81% |  |  |  | 
14 | O=C(C[C@H]1CC[C@]2(CC1)OO[C@]1(O2)C2CC3CC(C2)CC1C3)Nc1nnn[nH]1 [OZ278] |  |  |  |  | 7.3/ND days | 56/ND % |  |  | 23 ng/mL (≈ 59.1 nM) | 39 ng/mL (≈ 100 nM) |  | 
15 | O=C(OCCn1ccnc1)C1CCC2(CC1)OOC1(O2)C2CC3CC(C2)CC1C3 (stereo not drawn) [OZ182] |  |  | 8.0 days | 91% | 7.3 days | 96% | 7.7 days | 95% | 4.5 ng/mL (≈ 11.2 nM) | 5.5 ng/mL (≈ 13.7 nM) |  | 
16 | CC(C)(N)CNC[C@H]1CC[C@]2(CC1)OOC1(O2)C2CC3CC(C2)CC1C3 (stereo partly drawn) [OZ287] | 0.49 ng/mL (≈ 1.34 nM) | 0.83 ng/mL (≈ 2.28 nM) |  |  | 8.3 days | 95% |  |  |  |  | 7.2 days | 68%
